One experiment concerns C2C12 skeletal myoblasts. Description: Differentiation of C2C12 myoblasts to myotubes on graphene films or SiO2. The format is cell-based, mouse. As to the method:
C2C12 skeletal myoblasts (ATCC Cat. No. CRL 1772) were cultured on graphene films or SiO2 in high glucose DMEM supplemented with 10% fetal bovine serum (FBS) and 1% antibiotics. […] Cells were cultured for 5 days and stained with primary antibody MF20 (myosin heavy chain, MHC) overnight at 4° C., followed by goat anti-mouse secondary antibody and the nuclear stain 4′, 6-diamidino-2-phenylindole (DAPI) for 2 hours at 37° C. Cells were imaged with a fluorescent microscope and images were quantified using ImageJ 1.47d.
Fusion index was calculated as the ratio of the number of nuclei in myocytes with two or more nuclei versus the total number of nuclei. Cell density was determined by counting the number of nuclei in a particular area. Statistical analysis was performed using one-way analysis of variance and values are reported as mean±standard error of the mean.

The subject of experiment [1] is NSC-34 motor neuron cells. Description: Differentiation of NSC-34 motor neuron cells (neurite outgrowth). The format is cell-based, mouse. Particulars: IGF-1 added to Neurobasal differentiation media. On the procedure:
NSC-34 cells (Cellutions, Cat. No. CLU 140) are a hybrid cell line produced by fusion of motor neuron enriched embryonic mouse spinal cord cells with mouse neuroblastoma, resulting in a motor neuron-like cell. NSC-34 cells were grown in high glucose DMEM with 10% FBS and 1% antibiotics. […] In some examples, NSC-34 cells were cultured in Neurobasal medium with 50-100 ng/ml IGF-1. Cells were imaged with a fluorescent microscope and images were quantified using ImageJ 1.47d with the NeuronJ plugin.

Where [2] appears, read: IGF-1 (50 ng/ml) added to differentiation medium, graphene films, vs differentiation medium alone.

In the case of insulin-like growth factor-1 [IGF-1], in the experiment with C2C12 skeletal myoblasts (setting [2]), the cell density entry was “significantly increased”, the fusion index result is “significantly increased” and the myotube formation result is “significantly increased”. The myotube formation entry in the experiment with C2C12 skeletal myoblasts (increasing the amount of IGF-1 in the differentiation medium from 1-500 ng/ml) was “increased myotube formation”. For the same substance, in experiment [1], the “neurite length per neuron” value is “significantly increased”, the “number of neurites per neuron” value is “did not affect” and the “sum of neurite length” value is listed as “significantly increased”.

Source of the values: patent US20170363616A1, “PATTERNED NEUROMUSCULAR JUNCTIONS AND METHODS OF USE” (Los Alamos National Security, LLC, priority 2014, published 2017).
